# Assay results from patent US10131652B2, “Pyrimidinyloxy benzene derivatives as herbicides” (E. I. DU PONT DE NEMOURS AND COMPANY, priority 2014, dated 2018).
# Tests used:
# Type in all cases: in vivo
# [1] = system: Italian ryegrass (Lolium multiflorum); test: Test B pre-/postemergence plant response
# Summary of the method: (§1)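 Seeds in loam–sand blend given preemergence soil spray; separately, plants at one- to two-leaf stage (2–10 cm) sprayed postemergence, compounds in non-phytotoxic solvent with surfactant. Injury rated visually versus untreated controls after ~10 days in greenhouse, 0 (no effect) to 100 (complete control).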
# [2] = system: kochia (Kochia scoparia); test: Test B pre-/postemergence plant response
# Summary of the method: as §1
# [3] = system: ragweed (common ragweed, Ambrosia elatior); test: Test B pre-/postemergence plant response
# Summary of the method: as §1
# [4] = system: Italian ryegrass (Lolium multiflorum); test: Test D pre-/postemergence plant response
# Summary of the method: (§2)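 Sown seed (loam/sand soil) treated preemergence; emerged plants, 1- to 4-leaf stage and 2 to 18 cm, treated postemergence in peat/vermiculite medium. Greenhouse incubation 13–15 d. Endpoint: visual 0–100 rating versus untreated.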
# [5] = system: barnyardgrass (Echinochloa crus-galli); test: Test D pre-/postemergence plant response
# Summary of the method: as §2
# [6] = system: blackgrass (Alopecurus myosuroides); test: Test D pre-/postemergence plant response
# Summary of the method: as §2
# [7] = system: corn (Zea mays); test: Test D pre-/postemergence plant response
# Summary of the method: as §2
# [8] = system: galium (catchweed bedstraw, Galium aparine); test: Test D pre-/postemergence plant response
# Summary of the method: as §2
# [9] = system: giant foxtail (Setaria faberii); test: Test D pre-/postemergence plant response
# Summary of the method: as §2
# [10] = system: large (Lg) crabgrass (Digitaria sanguinalis); test: Test D pre-/postemergence plant response
# Summary of the method: as §2
# [11] = system: oilseed rape (Brassica napus); test: Test D pre-/postemergence plant response
# Summary of the method: as §2
# [12] = system: pigweed (Amaranthus retroflexus); test: Test D pre-/postemergence plant response
# Summary of the method: as §2
# [13] = system: ragweed (common ragweed, Ambrosia elatior); test: Test D pre-/postemergence plant response
# Summary of the method: as §2
# [14] = system: yellow nutsedge (Cyperus esculentus); test: Test D pre-/postemergence plant response
# Summary of the method: as §2
# [15] = 31 g ai/ha, Postemergence, 0 to 100 scale, 0 no effect, 100 complete control
# [16] = 31 g ai/ha, Preemergence, 0 to 100 scale where 0 is no effect and 100 is complete control
# [17] = 125 g ai/ha, postemergence, 0 to 100 scale, 0 no effect, 100 complete control
# [18] = Postemergence, 16 g ai/ha, scale 0 to 100 (0 no effect, 100 complete control)
# [19] = Postemergence, 31 g ai/ha, scale 0 to 100 (0 no effect, 100 complete control)
# [20] = Postemergence, 62 g ai/ha, scale 0 to 100, 0 no effect, 100 complete control
# [21] = Postemergence, 125 g ai/ha, scale 0 to 100, 0 no effect, 100 complete control
# [22] = Preemergence, 16 g ai/ha, scale 0 to 100 (0 no effect, 100 complete control)
# [23] = Preemergence, 31 g ai/ha, scale 0 to 100 (0 no effect, 100 complete control)
# [24] = Preemergence, 62 g ai/ha, scale 0 to 100 (0 no effect, 100 complete control)
structure (smiles),measurement,setting,value
Fc1cccc(Oc2ncc(Br)cn2)c1-c1cc(C(F)F)on1 [Compound 118],"Plant response rating, Ryegrass, Italian",[1]; [15],20
same,"Plant response rating, Ryegrass, Italian",[1]; [16],20
same,"Plant response rating, Ryegrass, Italian",[1]; [17],80
same,"Plant response rating, Kochia",[2]; [15],100
same,"Plant response rating, Kochia",[2]; [16],80
same,"Plant response rating, Kochia",[2]; [17],100
same,"Plant response rating, Kochia","[2]; Preemergence, 125 g ai/ha, 0 to 100 scale where 0 is no effect and 100 is complete control",100
same,"Plant response rating, Ragweed",[3]; [15],30
same,"Plant response rating, Ragweed",[3]; [16],20
same,"Plant response rating, Ragweed",[3]; [17],50
same,"Ryegrass, Italian plant response rating",[4]; [18],0
same,"Ryegrass, Italian plant response rating",[4]; [19],0
same,"Plant response rating, Ryegrass, Italian",[4]; [20],5
same,"Plant response rating, Ryegrass, Italian",[4]; [21],5
same,"Plant response rating (scale 0 to 100), Ryegrass, Italian","[4]; Preemergence, 125 g ai/ha",60
same,"Plant response rating, Ryegrass, Italian",[4]; [22],0
same,"Plant response rating, Ryegrass, Italian",[4]; [23],5
same,"Plant response rating, Ryegrass, Italian",[4]; [24],65
same,Barnyardgrass plant response rating,[5]; [18],10
same,Barnyardgrass plant response rating,[5]; [19],20
same,"Plant response rating, Barnyardgrass",[5]; [20],20
same,"Plant response rating, Barnyardgrass",[5]; [21],30
same,"Plant response rating (scale 0 to 100), Barnyardgrass","[5]; Preemergence, 62 g ai/ha",100
same,"Plant response rating (scale 0 to 100), Barnyardgrass","[5]; Preemergence, 125 g ai/ha",100
same,"Plant response rating, Barnyardgrass",[5]; [22],10
same,"Plant response rating, Barnyardgrass",[5]; [23],60
same,Blackgrass plant response rating,[6]; [18],5
same,Blackgrass plant response rating,[6]; [19],10
same,"Plant response rating, Blackgrass",[6]; [20],15
same,"Plant response rating, Blackgrass",[6]; [21],35
same,"Plant response rating (scale 0 to 100), Blackgrass","[6]; Preemergence, 125 g ai/ha",90
same,"Plant response rating, Blackgrass",[6]; [22],0
same,"Plant response rating, Blackgrass",[6]; [23],10
same,"Plant response rating, Blackgrass",[6]; [24],60
same,Corn plant response rating,[7]; [18],5
same,Corn plant response rating,[7]; [19],10
same,"Plant response rating, Corn",[7]; [20],15
same,"Plant response rating, Corn",[7]; [21],15
same,"Plant response rating (scale 0 to 100), Corn","[7]; Preemergence, 125 g ai/ha",30
same,"Plant response rating, Corn",[7]; [22],0
same,"Plant response rating, Corn",[7]; [23],5
same,"Plant response rating, Corn",[7]; [24],30
same,Galium plant response rating,[8]; [18],85
same,Galium plant response rating,[8]; [19],90
same,"Plant response rating, Galium",[8]; [20],90
same,"Plant response rating, Galium",[8]; [21],98
same,"Plant response rating (scale 0 to 100), Galium","[8]; Preemergence, 125 g ai/ha",95
same,"Plant response rating, Galium",[8]; [22],60
same,"Plant response rating, Galium",[8]; [23],98
same,"Plant response rating, Galium",[8]; [24],95
same,"Foxtail, Giant plant response rating",[9]; [18],5
same,"Foxtail, Giant plant response rating",[9]; [19],15
same,"Plant response rating, Foxtail, Giant",[9]; [20],10
same,"Plant response rating, Foxtail, Giant",[9]; [21],20
same,"Plant response rating (scale 0 to 100), Foxtail, Giant","[9]; Preemergence, 125 g ai/ha",100
same,"Plant response rating, Foxtail, Giant",[9]; [22],98
same,"Plant response rating, Foxtail, Giant",[9]; [23],100
same,"Plant response rating, Foxtail, Giant",[9]; [24],100
same,"Crabgrass, Large plant response rating",[10]; [18],10
same,"Crabgrass, Large plant response rating",[10]; [19],10
same,"Plant response rating, Crabgrass, Large",[10]; [20],15
same,"Plant response rating, Crabgrass, Large",[10]; [21],20
same,"Plant response rating (scale 0 to 100), Crabgrass, Large","[10]; Preemergence, 125 g ai/ha",100
same,"Plant response rating, Crabgrass, Large",[10]; [22],100
same,"Plant response rating, Crabgrass, Large",[10]; [23],100
same,"Plant response rating, Crabgrass, Large",[10]; [24],100
same,Oilseed Rape plant response rating,[11]; [18],5
same,Oilseed Rape plant response rating,[11]; [19],30
same,"Plant response rating, Oilseed Rape",[11]; [20],60
same,"Plant response rating, Oilseed Rape",[11]; [21],95
same,"Plant response rating (scale 0 to 100), Oilseed Rape","[11]; Preemergence, 125 g ai/ha",100
same,"Plant response rating, Oilseed Rape",[11]; [22],85
same,"Plant response rating, Oilseed Rape",[11]; [23],98
same,"Plant response rating, Oilseed Rape",[11]; [24],100
same,Pigweed plant response rating,[12]; [18],80
same,Pigweed plant response rating,[12]; [19],95
same,"Plant response rating, Pigweed",[12]; [20],95
same,"Plant response rating, Pigweed",[12]; [21],98
same,"Plant response rating (scale 0 to 100), Pigweed","[12]; Preemergence, 125 g ai/ha",100
same,"Plant response rating, Pigweed",[12]; [22],100
same,"Plant response rating, Pigweed",[12]; [23],100
same,"Plant response rating, Pigweed",[12]; [24],100
same,Ragweed plant response rating,[13]; [18],80
same,Ragweed plant response rating,[13]; [19],45
same,"Plant response rating, Ragweed",[13]; [20],55
same,"Plant response rating, Ragweed",[13]; [21],85
same,"Plant response rating (scale 0 to 100), Ragweed","[13]; Preemergence, 125 g ai/ha",85
same,"Plant response rating, Ragweed",[13]; [22],85
same,"Plant response rating, Ragweed",[13]; [23],20
same,"Plant response rating, Ragweed",[13]; [24],70
same,"Nutsedge, Yellow plant response rating",[14]; [18],5
same,"Nutsedge, Yellow plant response rating",[14]; [19],5
same,"Plant response rating, Nutsedge, Yellow",[14]; [20],10
same,"Plant response rating, Nutsedge, Yellow",[14]; [21],10
same,"Plant response rating (scale 0 to 100), Nutsedge, Yellow","[14]; Preemergence, 125 g ai/ha",65
same,"Plant response rating, Nutsedge, Yellow",[14]; [22],0
same,"Plant response rating, Nutsedge, Yellow",[14]; [23],0
same,"Plant response rating, Nutsedge, Yellow",[14]; [24],15
